# How the values were obtained:
# angiogenesis = settings: associated with embryogenesis and inflammation; cited from earlier work
# [1] = tested on: endothelial cell migration; settings: cited from earlier work
# mouse FGF receptor (mFR) = assay: High-affinity receptor binding of 125I-bFGF to CHO cells transfected with mFR; settings: for high-affinity binding of bFGF: no heparin
# Text: The following cell lines were used: Balb/c fibroblasts; NIH 3T3 cells; CHO K1 cells (parental wild-type CHO cells, available as ATCC Accession No. CCL 61); clones 803 and 677, each of which is a clone of glucuronosyltransferase-deficient CHO K1 cells which lack cell-surface HSPG (in addition, 677 cells overexpress the closely related GAG, chondroitin sulfate); and clone 606, HS-N-sulfotransferase-deficient CHO K1-derived cells which express normal levels of (but undersulfated) cell surface HSPG. The mutant clones 803, 677, and 606 were obtained from Dr. Jeffrey D. Esko. Wild-type and mutant CHO cells were routinely grown in Hams F12 medium supplemented with 10% bovine fetal calf serum and L-glutamine (Sigma). For transfection of the murine FGF receptor, approximately 4×10^7 cells were trypsinized, washed in ice cold PBS, and incubated with 50 μg Mo/mFR/SV and 8 μg of CMV B-gal (source; used as a control for transfection efficiency) for 10 min at 4° C. Electroporation was done in a Bio-Rad Gene Pulser at 960 uF and 300V. Cells were then plated in 3 cm, 6-well plates, medium was replaced after 24 hours, and b-gal and binding assays were performed 36 to 48 hours after electroporation. Routinely, 30 to 40% of the cells stained positive for b-gal.
# (§1) Subconfluent cultures of about 2×10^5 cells in a 30 mm dish (Costar) were precooled to 4° C., washed twice with cold Dulbecco's modified Eagle's medium supplemented with 25 mM HEPES pH 7.5 and 1% bovine serum albumin (DMEM/BSA), and incubated for 2 hours at 4° C. with ^125 I-bFGF (50 μCi/ mmole) in DMEM/BSA at different concentrations and in the presence or absence of heparin, as determined by the experimental protocol. The binding medium was then discarded and the cells washed twice with ice cold PBS and twice with DMEM/BSA. To determine the amount of low-affinity-bound bFGF, the cells were incubated twice for 5 minutes with cold PBS, pH 7.5, containing 1.6M NaCl (low-affinity-bound bFGF could be totally removed using salt concentrations of 0.8M and higher--data not shown), and the radioactivity of the salt extraction solution assayed in a gamma counter. High-affinity-bound bFGF was determined by a 2M NaCl (pH 4.0) extraction (Moscatelli, J. Cell Biol. 107:753-759, 1988). Nonspecific binding was determined by including a 100-fold excess of unlabeled bFGF. After binding in the presence or absence of heparin, bFGF-receptor crosslinking with disuccinimidyl suberate (DSS) was performed as described (Yayon and Klagsbrun, Proc. Natl. Acad. Sci. USA 87:5346-5350, 1990). Briefly, cells were washed twice with PBS and then incubated with 0.15 mM DSS in PBS for 15 minutes at room temperature. The cells were then washed with a solution of 50 mM Tris, pH 7.4, and 100 mM glycine; and scraped and lysed in a small volume of lysis buffer containing 150 mM NaCl, 20 mM Tris pH 8.0, 1mM MgCl2, 0.1 mM ZnCl2, 0.5% NP-40 (Sigma), 1 μg aprotinin (Sigma), 1 μg/ml leupeptin (Sigma), and 2 mM PMSF (phenylmethylsulfonyl fluoride; Sigma). The cell lysate, cleared by spinning down nuclei and cell debris, was boiled and then electrophoresed under reducing conditions on a 7% SDS polyacrylamide gel. After drying the gel, an autoradiogram was prepared using Kodak X-Omat AR film (Eastman Kodak Co., Rochester, N.Y.).
# [2] = tested on: high-affinity FGF receptors; assay: High-affinity binding of 125I-bFGF to untransfected CHO cells; settings: untransfected wild-type and mutant CHO cells, compared to NIH-3T3 cells
# Experimental: as §1, with “The cells were then washed with a solution of 50 mM Tris, pH 7.4, and 100 mM glycine; and scraped and lysed in a small volume of lysis buffer containing 150 mM NaCl, 20 mM Tris pH 8.0, 1mM MgCl2, 0.1 mM ZnCl2, 0.5% NP-40 (Sigma), 1 μg aprotinin (Sigma), 1 μg/ml leupeptin (Sigma), and 2 mM PMSF (phenylmethylsulfonyl fluoride; Sigma). The cell lysate, cleared by spinning down nuclei and cell debris, was boiled and then electrophoresed under reducing conditions on a 7% SDS polyacrylamide gel. After drying the gel, an autoradiogram was prepared using Kodak X-Omat AR film (Eastman Kodak Co., Rochester, N.Y.).” left out
# [3] = tested on: cell surface heparin sulfate proteoglycans (low-affinity binding sites); assay: Low-affinity binding of 125I-bFGF to cells (1.6M NaCl extraction)
# Experimental: as §1
# [4] = tested on: serum-starved Balb/c fibroblasts; assay: Biological activity of iodinated bFGF; assay type: cell-based; settings: ability to stimulate serum-starved Balb/c fibroblasts
# Text: Recombinant human bFGF was labeled with ^125 I (17 Ci/mg) (New England Nuclear, Boston, MA) using Iodo-beads (Pierce Chemical Co., Rockford, IL) according to the manufacturer's instructions. […] When subjected to SDS-PAGE, ^125 I-bFGF migrated as a single band in the same position as unlabeled bFGF.
# mouse FGF receptor = assay: Chemical crosslinking of 125I-bFGF to mFR-transfected CHO cells (DSS); settings: HS-deficient cells; unless heparin was included in the binding medium
# Experimental: as §1, with “The cells were then washed with a solution of 50 mM Tris, pH 7.4, and 100 mM glycine; and scraped and lysed in a small volume of lysis buffer containing 150 mM NaCl, 20 mM Tris pH 8.0, 1mM MgCl2, 0.1 mM ZnCl2, 0.5% NP-40 (Sigma), 1 μg aprotinin (Sigma), 1 μg/ml leupeptin (Sigma), and 2 mM PMSF (phenylmethylsulfonyl fluoride; Sigma). The cell lysate, cleared by spinning down nuclei and cell debris, was boiled and then electrophoresed under reducing conditions on a 7% SDS polyacrylamide gel. After drying the gel, an autoradiogram was prepared using Kodak X-Omat AR film (Eastman Kodak Co., Rochester, N.Y.).” left out
# [5] = Degradation of bFGF in binding medium (gel electrophoresis, biological activity assay); assay type: physicochemical; settings: aliquots at end of each experiment, with or without heparin
# Text: The heparin-dependent high-affinityreceptor binding was similar to that reported for non-heparin-dependent binding of bFGF to cells which naturally express both HSPG and high-affinity receptors for bFGF (Neufeld et al., J. Biol. Chem. 261:5631-5637, 1985).
# [6] = tested on: FRAP (mouse bFGF receptor/alkaline phosphatase fusion); assay: Cell-free assay: 125I-bFGF binding to FRAP fusion protein, immunoprecipitated with AP-specific antibody
# Experimental: Conditioned medium from FRAP-A2 was assayed for its ability to bind ^125 I-bFGF by combining in the presence or in the absence of a standard amount of heparin, an aliquot of conditioned medium with a standard amount of ^125 I-bFGF and a standard amount of monoclonal antibody specific for placental alkaline phosphatase (Medix Biotech, Foster City, Calif.) coupled to CNBr-activated sepharose beads (Pharmacia, Piscataway, N.J.). The mixture was incubated for 90 min at 4° C. and centrifuged to pellet the beads, which were then washed two times with 0.5 ml PBS and re-pelleted before determining the amount of bound ^125 I in a gamma counter. […] In the experiment illustrated in FIG. 13, varying amounts of FRAP-A2-conditioned medium were combined with heparin and ^125 I-bFGF, while in FIG. 14 the variable was the concentration of heparin in the assay mix.
substance,measurement,setting,value
Protamine,effect on angiogenesis,angiogenesis,inhibits angiogenesis
same,effect on heparin-stimulated endothelial cell migration,[1],inhibits the ability of heparin to stimulate endothelial cell migration
^125 I-bFGF: recombinant human bFGF labeled with 125I using Iodo-beads [reference compound],125I-bFGF bound relative to untransfected cells,mouse FGF receptor (mFR); wild-type CHO cells transiently transfected with mFR,8-10 fold
"bFGF: recombinant human basic fibroblast growth factor, gift from Takeda Inc.",high-affinity binding of bFGF,[2],very little high-affinity binding
same,character of bFGF-receptor binding,"mouse FGF receptor (mFR); HS-deficient cells, 40 ng/ml heparin","specific, saturable, single class of high-affinity binding sites"
same,competition of heparin-dependent high-affinity receptor binding of 125I-bFGF,mouse FGF receptor (mFR); excess of unlabeled bFGF,specifically competed out
same,high-affinity binding of bFGF,mouse FGF receptor (mFR); mFR-transfected HS-deficient mutants,none of the similarly transfected HS-deficient mutants showed significant high-affinity binding
same,high-affinity binding of bFGF,mouse FGF receptor (mFR); wild-type CHO K1 cells transfected with Mo/mFR/SV,high levels of high-affinity binding
same,reduction of low-affinity binding of bFGF compared to wild-type CHO cells,[3]; CHO clone 606 (undersulfated HSPG),more than 50%
same,low-affinity binding of bFGF,"[3]; clone 677 cells (undetectable HSPG, overexpress chondroitin sulfate)",Absence of low-affinity bFGF binding
same,low-affinity binding of bFGF,[3]; clone 803 cells (5%-10% of wild-type HSPG),did not bind significant amounts
same,low-affinity binding of bFGF,[3]; wild-type CHO K1 cells,comparable to that found for NIH-3T3 cells
same,biological activity after iodination,[4],Full biological activity
same,crosslinking of bFGF to high-affinity receptors,mouse FGF receptor,could not be crosslinked
same,degradation of bFGF in binding medium,[5],no signs of degradation
same,bound 125I with increasing concentrations of unlabelled FGF,[6]; competition assay (FIG. 12),decrease
same,binding of labelled bFGF to fusion protein,[6]; presence vs absence of heparin or a heparin-like molecule,in the presence but not in the absence

# Source: patent US5789182A, “System for assaying binding to a heparin-binding growth factor receptor” (The Children's Medical Center Corporation, priority 1993, dated 1998)
